Data set [1] can be described thus: Solubility test (turbidity, JP-I, JP-II). Format: physicochemical. Particulars: kinetic from dmso stock, 2% DMSO, turbidity after 4 hours. As to the method:
A 2-fold dilution series (12 points) of a 10 mM solution of a compound of the present invention in DMSO was added to a medium (JP-I, JP-II) (2%), and solubility was assessed by 3 stages (High; >40 μM, Medium; 3-40 μM, Low; <3 μM) from a turbidity after 4 hours.

The next data set concerns the target T1, CYP3A4 (Homo sapiens, UniProt P08684).
T1 construct: host or cells: Escherichia coli (printed 'Escherichia cob')
In words: CYP3A4 fluorescent MBI test. Type of data set: in vitro ADME. Particulars: substrate 7-BFC; pre-reaction time 0 or 30 minutes; compound 0.625-20 μmol/L. As to the method:
The CYP3A4 fluorescent MBI test is a test of investigating enhancement of CYP3A4 inhibition of a compound by a metabolism reaction. 7-benzyloxytrifluoromethylcoumarin (7-BFC) is debenzylated by the CYP3A4 enzyme (enzyme expressed in Escherichia cob) and 7-hydroxytrifluoromethylcoumarin (7-HFC) is produced as a fluorescing metabolite. The test is performed using 7-HFC production reaction as an index.
The reaction conditions are as follows: substrate, 5.6 […], 7-BFC; pre-reaction time, 0 or 30 minutes; reaction time, 15 minutes; reaction temperature, 25° C. […]
An enzyme in a K-Pi buffer (pH 7.4) and a compound of the present invention solution as a pre-reaction solution were added to a 96-well plate at the composition of the pre-reaction. […] Fluorescent values of 7-HFC as a metabolite were measured in each index reaction plate with a fluorescent plate reader (Ex=420 nm, Em=535 nm).
The sample adding DMSO to a reaction system instead of compound of the present invention solution is adopted as a control (100%) because DMSO is used as a solvent to dissolve a compound of the present invention. Remaining activity (%) was calculated at each concentration of the compound of the present invention added as the solution, and IC50 was calculated by reverse-presumption by a logistic model using a concentration and an inhibition rate. […]

For a further data set, the target named is T2, Recombinant human BACE-1 (Homo sapiens, UniProt P56817).
T2 construct: purchased R&D Systems
T2 sequence (P56817 46-501): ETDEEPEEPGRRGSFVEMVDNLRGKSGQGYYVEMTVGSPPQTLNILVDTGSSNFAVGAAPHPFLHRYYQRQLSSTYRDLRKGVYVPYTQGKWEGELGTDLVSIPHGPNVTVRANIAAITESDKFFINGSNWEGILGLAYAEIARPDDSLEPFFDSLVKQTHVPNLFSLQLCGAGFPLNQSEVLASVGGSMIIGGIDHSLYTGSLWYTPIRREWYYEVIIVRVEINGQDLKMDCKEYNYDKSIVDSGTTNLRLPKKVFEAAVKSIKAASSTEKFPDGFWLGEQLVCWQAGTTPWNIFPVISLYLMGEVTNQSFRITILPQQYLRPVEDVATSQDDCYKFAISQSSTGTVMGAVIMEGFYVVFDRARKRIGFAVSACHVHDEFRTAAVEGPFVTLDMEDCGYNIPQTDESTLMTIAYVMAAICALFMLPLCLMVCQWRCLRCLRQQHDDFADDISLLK
Briefly: Assay of BACE-1 inhibiting activity. Type of data set: biochemical. Particulars: Recombinant human BACE-1 7.4 nmol/L, substrate peptide 18 nmol/L, pH 5.0, 30° C., 3.5 hours; read-out: IC50 value (50% inhibitory concentration against the enzymatic activity). As to the method: 48.5 μL of substrate peptide solution (Biotin-XSEVNLDAEFRHDSGC-Eu: X=ε-amino-n-capronic acid, Eu=Europium cryptate) was added to each well of 96-hole half-area plate (a black plate: Costar), and after addition of 0.5 μl of the compound of the present invention (DMSO solution) and 1 μl of Recombinant human BACE-1 (R&D Systems), the reaction mixture was incubated at 30° C. for 3.5 hours. The substrate peptide was synthesized by reacting Cryptate TBPCOOH mono SMP (CIS bio international) with Biotin-XSEVNLDAEFRHDSGC (Peptide Institute, Inc.). The final concentrations of the substrate peptide and Recombinant human BACE-1 were adjusted to 18 nmol/L and 7.4 nmol/L, respectively, and the reaction was performed in sodium acetate buffer (50 mmol/L sodium acetate, pH 5.0, 0.008% Triton X-100).
After the incubation for reaction, 50 μl of 8.0 μg/ml Streptavidin-XL665 (CIS bio international) dissolved in phosphate buffer (150 mmol/L K2HPO4—KH2PO4, pH 7:0, 0.008% Triton X-100, 0.8 mol/L KF) was added to each well and left stand at 30° C. for 45 minutes. After then, fluorescence intensity was measured (excitation wavelength: 320 nm, measuring wavelength: 620 nm and 665 nm) using Wallac 1420 multilabel counter (Perkin Elmer life sciences). Enzymatic activity was determined from counting ratio of each wavelength (10,000×Count 665/Count 620) and 50% inhibitory concentration against the enzymatic activity (IC50) was calculated.

Data set [2] is described as follows: Metabolism stability test. Format: in vitro ADME. Particulars: pooled human liver microsomes 0.5 mg protein/mL, 1 mmol/L NADPH, 37° C., 30 minutes; 0 minute = 100%. As to the method: Using a commercially available pooled human liver microsomes, a compound of the present invention is reacted for a constant time, a remaining rate is calculated by comparing a reacted sample and an unreacted sample, thereby, a degree of metabolism in liver was assessed.
A reaction was performed (oxidative reaction) at 37° C. for 0 minute or 30 minutes in the presence of 1 mmol/L NADPH in 0.2 mL of a buffer (50 mmol/L Tris-HCl pH 7.4, 150 mmol/L potassium chloride, 10 mmol/L magnesium chloride) containing 0.5 mg protein/mL of human liver microsomes. After the reaction, 50 μL of the reaction solution was added to 100 μL of a methanol/acetonitrile=1/1 (v/v), mixed and centrifuged at 3000 rpm for 15 minutes. The compound of the present invention in the supernatant was quantified by LC/MS/MS, and a remaining amount of the compound of the present invention after the reaction was calculated, letting a compound amount at 0 minute reaction time to be 100%.
On the technique in general: Liver microsomes are a subcellular fraction often used to study metabolism.

Data set [3] is described as follows: BA test (oral absorption). Type of data set: in vivo, mouse or SD rat. The settings on record: plasma; from AUCs of oral (1 to 30 mg/kg) and intravenous (0.5 to 10 mg/kg) administration groups. As to the method:
Materials and Methods for Studies on Oral Absorption (1) Animal: mouse or SD rat (2) Breeding conditions: mouse or SD rat is allowed free access to the sterilized tap water and the solid food. […] (6) Evaluation items: blood was collected at the scheduled time, and the plasma concentration of the compound of the present invention was measured by LC/MS/MS (7) Statistical analysis: regarding the transition of the plasma concentration of the compound of the present invention, the area under the plasma concentration-time curve (AUC) was calculated by non-linear least squares program WinNonlin (Registered trademark), and the bioavailability (BA) of the compound of the present invention was calculated from the AUCs of the oral administration group and intravenous administration group

Where two headings read alike, the source gives them in different places. Bounds are passed on as bounds.

The source of these data is patent publication US20140235626A1, “PYRIDINE DERIVATIVES AND A PHARMACEUTICAL COMPOSITION FOR INHIBITING BACE1 CONTAINING THEM” (SHIONOGI & CO., LTD., priority 2011, published 2014).

T1 sequence (P08684 whole entry): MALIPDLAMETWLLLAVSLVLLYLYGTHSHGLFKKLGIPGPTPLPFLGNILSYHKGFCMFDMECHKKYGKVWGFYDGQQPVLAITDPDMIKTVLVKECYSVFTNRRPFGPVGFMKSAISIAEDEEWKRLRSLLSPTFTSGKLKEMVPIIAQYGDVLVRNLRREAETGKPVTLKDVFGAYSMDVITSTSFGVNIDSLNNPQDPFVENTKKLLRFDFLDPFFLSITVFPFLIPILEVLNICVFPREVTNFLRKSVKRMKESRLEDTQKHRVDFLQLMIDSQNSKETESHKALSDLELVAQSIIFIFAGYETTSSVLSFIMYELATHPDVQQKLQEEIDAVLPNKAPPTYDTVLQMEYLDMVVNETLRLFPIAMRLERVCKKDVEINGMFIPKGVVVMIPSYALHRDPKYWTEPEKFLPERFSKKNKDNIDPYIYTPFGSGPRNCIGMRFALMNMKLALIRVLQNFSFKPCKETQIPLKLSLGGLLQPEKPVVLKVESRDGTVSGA

Regarding `COc1cnc(C(=O)Nc2ccnc([C@]3(C)C=CSC(N)=N3)c2)cn1` [Compound I-47], the solubility at 4 h in data set [1] (pH 1.2, simulated gastric fluid, medium JP-I, read-out: Solubility (3 stages) in JP-I) is above 40 µM; in data set [1] (pH 6.8, fassgf or other biorelevant, medium JP-II, read-out: Solubility (3 stages) in JP-II), above 40 µM.
For `C[C@@]1(c2cc(NC(=O)c3ccc(C#N)cn3)ccn2)CCSC(N)=N1` [Compound I-1], at CYP3A4, the “CYP3A4 MBI: difference between IC50 values with and without preincubation, positive (+) / negative (−)” value is given as “(−) (When the difference was 3 μM or less, this was defined as negative(−))”. The IC50 on Recombinant human BACE-1 was at most 1000 nM.
Take `C[C@@]1(c2cc(NC(=O)c3cnc(OC(F)F)cn3)ccn2)C=CSC(N)=N1` [Compound I-2]: the IC50 on Recombinant human BACE-1 came to 33 nM.
Same read-out and setting: the same measure for `Cc1cnc(C(=O)Nc2ccnc([C@]3(C)C[C@@H](C)SC(N)=N3)c2)cn1` [Compound I-293]: at most 1000 nM; for `C[C@@]1(c2cc(NC(=O)c3ccccn3)ccn2)CCSC(N)=N1` [Compound I-272]: at most 1000 nM.
Turning to `CC(F)(F)Oc1ccc(C(=O)Nc2ccnc([C@]3(C)C=CSC(N)=N3)c2)nc1` [Compound I-24], in data set [2], the “remaining amount of the compound after the reaction” value was found to be 98%.
Molecule `C[C@@]1(c2cc(NC(=O)c3ccc(C#N)cn3)ccn2)C=CSC(N)=N1.O=C(O)C(O)C(O)C(=O)O` [Compound I-10] displayed a bioavailability in data set [3] of 96.7%. For the same molecule, on Recombinant human BACE-1, the IC50 is at most 1000 nM.
Take `CC#Cc1ccc(C(=O)Nc2ccnc([C@]3(C)CCSC(N)=N3)c2)nc1` [Compound I-9]: the IC50 at Recombinant human BACE-1 was at most 1000 nM.
In the case of `NC1=N[C@](CF)(c2cc(NC(=O)c3cnc(C(F)F)cn3)ccn2)CCS1` [Compound I-246], the IC50 on Recombinant human BACE-1 was at most 1000 nM.
On the same count and under the same terms, for `C#Cc1ccc(C(=O)Nc2ccnc([C@]3(C)CCSC(N)=N3)c2)nc1` [Compound I-8] the value was 78 nM; for `C[C@@H]1C[C@@](C)(c2cc(NC(=O)c3ccccn3)ccn2)N=C(N)S1` [Compound I-273], at most 1000 nM.
`C=C1C[C@@](C)(c2cc(NC(=O)c3ccc(C(F)F)cn3)ccn2)N=C(N)S1` [Compound I-11]: the IC50 on Recombinant human BACE-1 was 48 nM.
Still for that read-out and setting: the same measure for `C[C@@H]1C[C@@](C)(c2cc(NC(=O)c3cnccn3)ccn2)N=C(N)S1` [Compound I-294]: at most 1000 nM.

The term solubility denotes how much of the substance goes into solution per volume. One may read the bioavailability as the share of a dose that reaches the circulation, judged against a reference dose that is usually intravenous.
